BindingDB's records for doi:10.1074/jbc.M111.266981 (AstraZeneca, 2011)
pIC50: −log10 of the molar value.

Target: T1, Myeloperoxidase (Homo sapiens, UniProt P05164)
T1 sequence (P05164 whole entry): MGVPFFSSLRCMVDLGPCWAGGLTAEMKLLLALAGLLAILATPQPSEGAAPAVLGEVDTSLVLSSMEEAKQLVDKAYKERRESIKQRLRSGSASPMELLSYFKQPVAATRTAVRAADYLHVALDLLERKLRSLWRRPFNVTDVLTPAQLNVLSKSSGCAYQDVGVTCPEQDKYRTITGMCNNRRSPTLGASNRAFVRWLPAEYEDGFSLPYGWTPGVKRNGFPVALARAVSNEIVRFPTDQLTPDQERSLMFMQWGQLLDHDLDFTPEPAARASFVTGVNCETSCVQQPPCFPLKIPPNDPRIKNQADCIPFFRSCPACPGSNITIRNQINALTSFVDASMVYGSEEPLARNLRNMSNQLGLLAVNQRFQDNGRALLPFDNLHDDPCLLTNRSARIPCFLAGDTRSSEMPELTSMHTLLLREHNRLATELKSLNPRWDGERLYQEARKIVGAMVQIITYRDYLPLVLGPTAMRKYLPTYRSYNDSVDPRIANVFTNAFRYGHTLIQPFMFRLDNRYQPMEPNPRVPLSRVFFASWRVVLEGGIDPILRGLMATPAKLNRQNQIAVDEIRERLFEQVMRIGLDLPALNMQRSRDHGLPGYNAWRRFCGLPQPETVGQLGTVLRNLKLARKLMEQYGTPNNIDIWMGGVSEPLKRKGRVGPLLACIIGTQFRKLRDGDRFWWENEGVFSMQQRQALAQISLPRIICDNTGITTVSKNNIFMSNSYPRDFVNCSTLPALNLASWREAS
Assay: Activity Assay
Settings: pH 7.4; 21 °C
Description: The chlorination activity of MPO was determined by measuring the production of hypocholorous acid.

pIC50	Compound
6.00	CC(C)Cn1c(=S)[nH]c(=O)c2[nH]cnc21 [2-Thioxanthine, TX1]
6.40	O=c1[nH]c(=S)n(CC2CCCO2)c2nc[nH]c12 (centres undefined) [2-Thioxanthine, TX3]
6.40	COCCn1c(=S)[nH]c(=O)c2[nH]cnc21 [2-Thioxanthine, TX5]
6.70	O=c1[nH]c(=S)n(C[C@H]2CCCO2)c2nc[nH]c12 [2-Thioxanthine, TX4]
